Results from the supplement of paper PMC10307832.

Experiments:
Test in all cases: relative viability (nuclei count vs DMSO), 5 days (fraction); higher = more cells survive
Mirin + Alpelisib = compound: N=C1NC(=O)/C(=C/c2ccc(O)cc2)S1 [Mirin] + Cc1nc(NC(=O)N2CCC[C@H]2C(N)=O)sc1-c1ccnc(C(C)(C)C(F)(F)F)c1 [Alpelisib] (partner 2 µM)
Outline: (§1)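 Values are medians from duplicate plates. Each reflects relative viability, defined as the nuclei count of treated wells over that of vehicle wells. Lung cancer cell lines in 1536-well plates were pin-tool dosed one day after seeding with one drug alone or with a fixed anchor-drug dose plus five library-drug doses (not always all listed) in √10 steps, then fixed, stained and imaged at 4× after 5 days.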

[1] = compound: CCn1c(-c2nonc2N)nc2cnc(Oc3cccc(NC(=O)c4ccc(OCCN5CCOCC5)cc4)c3)cc21 + COc1cc2c(Oc3ccc(NC(=O)C4(C(=O)Nc5ccc(F)cc5)CC4)cc3F)ccnc2cc1OCCCN1CCOCC1 [Foretinib] (partner 0.25 µM)
Outline: as §1

[2] = compound: CCC1=CN=CN=C1N2CCN(CC2)CC3=NC4=C(N3)C=C(C=C4)C(F)(F)F + Nc1nc2[nH]cc(CCc3ccc(C(=O)N[C@@H](CCC(=O)O)C(=O)O)cc3)c2c(=O)[nH]1 [Pemetrexed] (partner 0.2 µM)
Outline: as §1

[3] = compound: CCn1c(-c2nonc2N)nc2cnc(Oc3cccc(NC(=O)c4ccc(OCCN5CCOCC5)cc4)c3)cc21 + CS(=O)(=O)N1CCN(Cc2cc3nc(-c4cccc5[nH]ncc45)nc(N4CCOCC4)c3s2)CC1 [Pictilisib] (partner 1 µM)
Outline: as §1

| Cell Line | relative viability (Mirin + Alpelisib; first compound 0.25 µM) | relative viability (Mirin + Alpelisib; first compound 0.7906 µM) | relative viability (Mirin + Alpelisib; first compound 2.5 µM) | relative viability (Mirin + Alpelisib; first compound 7.906 µM) | relative viability (Mirin + Alpelisib; first compound 25 µM) | relative viability ([1]; first compound 0.04 µM) | relative viability ([1]; first compound 0.1265 µM) | relative viability ([1]; first compound 0.4 µM) | relative viability ([1]; first compound 1.265 µM) | relative viability ([1]; first compound 4 µM) | relative viability ([2]; first compound 0.04 µM) | relative viability ([2]; first compound 0.1265 µM) | relative viability ([2]; first compound 0.4 µM) | relative viability ([2]; first compound 1.265 µM) | relative viability ([2]; first compound 4 µM) | relative viability ([3]; first compound 0.04 µM) | relative viability ([3]; first compound 0.1265 µM) | relative viability ([3]; first compound 0.4 µM) | relative viability ([3]; first compound 1.265 µM) | relative viability ([3]; first compound 4 µM) |
| --- | --- | --- | --- | --- | --- | --- | --- | --- | --- | --- | --- | --- | --- | --- | --- | --- | --- | --- | --- | --- |
| LCLC-103H | 0.917 | 1.02 | 0.908 | 1.05 | 1.1 | 0.777 | 0.91 | 0.798 | 0.662 | 0.624 | 0.399 | 0.449 | 0.462 | 0.446 | 0.467 | 0.764 | 0.596 | 0.435 | 0.455 | 0.576 |
| LK-2 | 0.899 | – | 1.1 | 0.743 | 0.397 | 1.23 | 1.19 | 1.28 | 1.26 | 1.28 | 0.281 | 0.259 | 0.253 | 0.199 | 0.302 | 0.711 | 0.777 | 0.615 | 0.255 | 0.392 |
| LOU-NH91 | 0.726 | – | 0.728 | 0.65 | 0.747 | 0.92 | 0.83 | 0.697 | 0.47 | 0.525 | 0.377 | 0.318 | 0.378 | 0.348 | 0.379 | 0.61 | 0.613 | 0.484 | 0.475 | 0.495 |
| NCI-H522 | – | – | – | – | – | – | – | – | – | – | 0.855 | 1.2 | 0.892 | 0.876 | 0.958 | – | – | – | – | – |
| NCI-H727 | 0.699 | 0.7 | 0.692 | 0.761 | 0.54 | 1.08 | 0.888 | 0.852 | 1.15 | 1.15 | – | – | – | – | – | 0.613 | 0.741 | 0.604 | 0.487 | 0.345 |
| NCI-H1299 | 1.01 | 1.16 | 1.06 | 0.622 | 1.21 | 1.03 | 1.06 | 0.969 | 0.858 | 0.789 | – | – | – | – | – | 0.956 | 0.735 | 0.74 | 0.618 | 0.393 |
| NCI-H1623 | – | – | – | – | – | 1.08 | 0.975 | 0.779 | 0.727 | 0.897 | – | – | – | – | – | – | – | – | – | – |
| NCI-H1648 | – | – | – | – | – | – | – | – | – | – | 0.614 | – | – | 0.769 | 0.683 | – | – | – | – | – |
| NCI-H1650 | – | – | – | – | – | 1.19 | 1.32 | 1.49 | 1.23 | 0.969 | 0.456 | 0.333 | 0.401 | 0.364 | 0.393 | 0.9 | 0.595 | 0.551 | 0.502 | 0.527 |
| NCI-H1703 | 0.363 | 0.259 | 0.314 | – | 0.213 | 0.312 | 0.326 | 0.332 | 0.337 | 0.264 | – | – | – | – | – | 0.242 | 0.312 | 0.206 | 0.215 | 0.188 |
| NCI-H1792 | 0.743 | 0.691 | 0.81 | 0.613 | 0.641 | – | – | – | – | – | 0.773 | 0.736 | 0.82 | – | 0.665 | 0.267 | 0.28 | – | 0.231 | 0.285 |
| NCI-H2342 | – | – | – | – | – | 1.16 | 1.18 | 1.01 | 0.771 | 0.917 | 0.785 | 0.751 | 0.652 | 0.518 | 0.625 | – | – | – | – | – |
| SW 900 | – | – | – | – | – | 1.04 | 0.977 | 0.91 | 0.995 | 0.886 | 0.439 | 0.464 | 0.495 | – | 0.458 | – | – | – | – | – |
